Structures can show the parent of a compound that is named as a salt.
Columns and labels:
Type in all cases: in vivo
[1] = tested on: Human renal cell carcinoma line A-498 cells; assay: Antitumor effect in human renal cell carcinoma line A-498 subcutaneous transplantation model, nude mice
Description: Human renal cell carcinoma line A-498 cells (ATCC) were cultured by using RPMI1640 medium (Wako Pure Chemical Industries, Ltd.) containing 10% FBS in a 5% COz incubator under conditions of 37° C. When the cells became an approximately 100% confluent state, the cells were recovered by using trypsin-EDTA. A suspension was prepared by adding RPMI1640 medium containing 50% Matrigel to the cells so as to be 5.0×10^7 cells/mL. 0.1 mL of the obtained cell suspension was subcutaneously transplanted to the sides of the bodies of six nude mice (CAnN.Cg-Foxn1^nu/CrlCrlj, Charles River Laboratories Japan, Inc.) each of a control group, an E7386 50 mg/kg alone administration group, a lenvatinib mesylate 10 mg/kg alone administration group, and a combined administration group of 50 mg/kg E7386 and 10 mg/kg lenvatinib mesylate. From 27 days alter the transplantation, E7386 (50 mg/kg, q.d., 14 days, oral administration) and lenvatinib mesylate (10 mg/kg, q.d, 14 days, oral administration) were administered alone or in combination to the alone administration group or the combined administration group. For the administration, E7386 was dissolved in 0.1 mol/L hydrochloric acid, and lenvatinib mesylate was dissolved in 3 mmol/L hydrochloric acid. Any drug was not administered to the control group.
When the start day of administration was defined as day 1, the major axis and minor axis of tumor developed in each mouse were then measured at day 5, day 8, day 12, and day 15 by using Digimatic Caliper (Mitutoyo Corp.).
(§1) The tumor volume and the relative tumor volume (RTV) were calculated according to the following expressions. Tumor volume (mm^3)=Tumor major axis (mm)×Tumor minor axis^2 (mm^2)/2 Relative tumor volume (RTV)=Tumor volume at the measurement day/Tumor volume at the start day of administration

[2] = tested on: human melanoma cell line SEKI; assay: Antitumor effect in human melanoma cell line SEKI transplantation model, nude mice
Description: A human melanoma cell line SEKI (JCRB Cell Bank) was cultured by using RPMI1640 medium (Sigma-Aldrich Co. LLC) containing 10% FBS in a 5% CO2 incubator under conditions of 37° C. When the cells became an approximately 80% confluent state, the cells were recovered by using trypsin-EDTA. A suspension was prepared by adding Hank's balanced salt solution containing 50% Matrigel to the cells so as to be 5.0×10^7 cells/mL. 0.1 mL of the obtained cell suspension was subcutaneously transplanted to the sides of the bodies of six nude mice (CAnN.Cg-Foxn1^nu/CrlCrlj, Charles River Laboratories Japan, Inc.) each of a control group, an E7386 12.5 or 25 mg/kg alone administration group, a lenvatinib mesylate 10 mg/kg alone administration group, and a combined administration group of 12.5 or 25 mg/kg E7386 and 10 mg/kg lenvatinib mesylate. From 13 days after the transplantation, E7386 (12.5 or 25 mg/kg, b.d.s., 14 days, oral administration) and lenvatinib mesylate (10 mg/kg, q.d., 14 days, oral administration) were administered alone or in combination to the alone administration group or the combined administration group. For the administration, E7386 was dissolved in 0.1 mol/L hydrochloric acid, and lenvatinib mesylate was dissolved in 3 mmol/L hydrochloric acid. 0.1 mol/L hydrochloric acid (b.d.s., 14 days) was administered to the control group.
When the start day of administration was defined as day 1, the major axis and minor axis of tumor developed in each mouse were then measured at day 4, day 8, day 11, and day 15 by using Digimatic Caliper (Mitutoyo Corp.).
as §1

[3] = tested on: Human breast cancer MDA-MB-231 cells; assay: Antitumor effect in human breast cancer MDA-MB-231 transplantation model, nude mice
Description: Human breast cancer MDA-MB-231 cells (ATCC) were cultured by using RPMI1640 medium (Sigma-Aldrich Co. LLC) containing 10% FBS in a 5% CO2 incubator under conditions of 37° C. When the cells became an approximately 80% confluent state, the cells were recovered by using trypsin-EDTA. A suspension was prepared by adding Hank's balanced salt solution containing 50% Matrigel to the cells so as to be 10.0×10^7 cells/mL. 0.1 mL of the obtained cell suspension was subcutaneously transplanted to the sides of the bodies of five nude mice (CAnN.Cg-Foxn1^nu/CrlCrlj, Charles River Laboratories Japan, Inc.) each of a control group, an E7386 25 mg/kg alone administration group, a lenvatinib mesylate 10 mg/kg alone administration group, and a combined administration group of 25 mg/kg E7386 and 10 mg/kg lenvatinib mesylate. From 6 days after the transplantation, E7386 (25 mg/kg, b.d.s., 10 days, oral administration) and lenvatinib mesylate (10 mg/kg, q.d., 10 days, oral administration) were administered alone or in combination to the alone administration group or the combined administration group. For the administration, E7386 was dissolved in 0.1 mol/L hydrochloric acid, and lenvatinib mesylate was dissolved in 3 mmol/L hydrochloric acid. Any drug was not administered to the control group.
When the start day of administration was defined as day 1, the major axis and minor axis of tumor developed in each mouse were then measured at day 4, day 7, and day 10 by using Digimatic Caliper (Mitutoyo Corp.).
as §1

[4] = Day 4, E7386 25 mg/kg b.d.s. oral alone
[5] = Day 8, lenvatinib mesylate 10 mg/kg q.d. oral alone
[6] = Day 15, lenvatinib mesylate 10 mg/kg q.d. oral alone
[7] = Day 4, lenvatinib mesylate 10 mg/kg q.d. oral alone

C=CCN1CC(=O)N2[C@@H](Cc3ccc(O)cc3F)C(=O)N(Cc3cccc(N4CC(N5CCN(CC)CC5)C4)n3)C[C@@H]2N1C(=O)NCc1ccccc1 [E7386, (6S,9aS)—N-Benzyl-8-({6-[3-(4-ethylpiperazin-1-yl)azetidin-1-yl]pyridin-2-yl}methyl)-6-(2-fluoro-4-hydroxybenzyl)-4,7-dioxo-2-(prop-2-en-1-yl)hexahydro-2H-pyrazino[2,1-c][1,2,4]triazine-1(6H)-carboxamide]
Relative tumor volume (RTV), mean±SD ([1]; Day 5, E7386 50 mg/kg q.d. oral alone): 1.33 ± 0.24
Relative tumor volume (RTV), mean±SD ([1]; Day 8, E7386 50 mg/kg q.d. oral alone): 1.70 ± 0.26
Relative tumor volume (RTV), mean±SD ([1]; Day 12, E7386 50 mg/kg q.d. oral alone): 2.04 ± 0.29
Relative tumor volume (RTV), mean±SD ([1]; Day 15, E7386 50 mg/kg q.d. oral alone): 2.29 ± 0.33
Relative tumor volume (RTV), mean±SD ([2]; Day 4, E7386 12.5 mg/kg b.d.s. oral alone): 1.65 ± 0.22
Relative tumor volume (RTV), mean±SD [2, 4]: 1.56 ± 0.21
Relative tumor volume (RTV), mean±SD ([2]; Day 8, E7386 12.5 mg/kg b.d.s. oral alone): 3.02 ± 0.31
Relative tumor volume (RTV), mean±SD ([2]; Day 8, E7386 25 mg/kg b.d.s. oral alone): 2.94 ± 0.22
Relative tumor volume (RTV), mean±SD ([2]; Day 11, E7386 12.5 mg/kg b.d.s. oral alone): 4.19 ± 0.80
Relative tumor volume (RTV), mean±SD ([2]; Day 11, E7386 25 mg/kg b.d.s. oral alone): 4.35 ± 0.36
Relative tumor volume (RTV), mean±SD ([2]; Day 15, E7386 12.5 mg/kg b.d.s. oral alone): 5.53 ± 1.21
Relative tumor volume (RTV), mean±SD ([2]; Day 15, E7386 25 mg/kg b.d.s. oral alone): 5.90 ± 1.34
Relative tumor volume (RTV), mean±SD [3, 4]: 2.34 ± 0.11
Relative tumor volume (RTV), mean±SD ([3]; Day 7, E7386 25 mg/kg b.d.s. oral alone): 3.19 ± 0.38
Relative tumor volume (RTV), mean±SD ([3]; Day 10, E7386 25 mg/kg b.d.s. oral alone): 4.49 ± 0.51

COc1cc2nccc(Oc3ccc(NC(=O)NC4CC4)c(Cl)c3)c2cc1C(N)=O [Lenvatinib mesylate, 4-(3-chloro-4-(cyclopropylaminocarbonyl)aminophenoxy)-7-methoxy-6-quinolinecarboxamide, reference compound]
Relative tumor volume (RTV), mean±SD ([1]; Day 5, lenvatinib mesylate 10 mg/kg q.d. oral alone): 1.08 ± 0.18
Relative tumor volume (RTV), mean±SD [1, 5]: 1.35 ± 0.25
Relative tumor volume (RTV), mean±SD ([1]; Day 12, lenvatinib mesylate 10 mg/kg q.d. oral alone): 1.21 ± 0.18
Relative tumor volume (RTV), mean±SD [1, 6]: 1.20 ± 0.21
Relative tumor volume (RTV), mean±SD [2, 7]: 1.60 ± 0.22
Relative tumor volume (RTV), mean±SD [2, 5]: 2.66 ± 0.46
Relative tumor volume (RTV), mean±SD ([2]; Day 11, lenvatinib mesylate 10 mg/kg q.d. oral alone): 3.81 ± 0.80
Relative tumor volume (RTV), mean±SD [2, 6]: 4.67 ± 1.19
Relative tumor volume (RTV), mean±SD [3, 7]: 2.01 ± 0.60
Relative tumor volume (RTV), mean±SD ([3]; Day 7, lenvatinib mesylate 10 mg/kg q.d. oral alone): 2.41 ± 0.60
Relative tumor volume (RTV), mean±SD ([3]; Day 10, lenvatinib mesylate 10 mg/kg q.d. oral alone): 2.67 ± 1.23
